Several values for one entry are separate records, joined by “and”; a condition that tells them apart may be missing. Equal entries are not always repeated. Activity calls are given as the source filed them.
How the values were obtained:
[1] = Trypanosoma cruzi growth suppression in host cells – NIH3T3 host cells, beta-gal luminescence, confirmation (AID 2044); format: functional, cell-based;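 note: intracellular parasites grown in NIH/3T3 mouse fibroblasts as host cells; luminescent beta-galactosidase reporter signal from transgenic T. cruzi replicating inside host cells; inhibitors lower the luminescence signal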
[2] = NIH3T3 cell viability loss – ATP luminescence, mouse fibroblasts, counter-screen, dose response (AID 2010); format: functional, cell-based;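 note: cells exposed to compound for about 90 hours before reading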
[3] = molecular target: Cytochrome P450 2C19 (Homo sapiens, UniProt P33261); assay: Cytochrome panel assay with activity outcomes. Panel member name: p450-cyp2c19 Compounds with AC50 equal or less than 10 uM are considered active; format: functional; details: read-out: AC50
[4] = molecular target: T1, Rac GTPase-activating protein 1 (Homo sapiens, UniProt Q9H0H5); assay: blockers of MgcRacGAP-driven Rac1 GTP hydrolysis – biochemical, ADP Hunter fluorescence, primary and confirmatory, confirmation (AID 624330); format: functional
T1 sequence (Q9H0H5 whole entry): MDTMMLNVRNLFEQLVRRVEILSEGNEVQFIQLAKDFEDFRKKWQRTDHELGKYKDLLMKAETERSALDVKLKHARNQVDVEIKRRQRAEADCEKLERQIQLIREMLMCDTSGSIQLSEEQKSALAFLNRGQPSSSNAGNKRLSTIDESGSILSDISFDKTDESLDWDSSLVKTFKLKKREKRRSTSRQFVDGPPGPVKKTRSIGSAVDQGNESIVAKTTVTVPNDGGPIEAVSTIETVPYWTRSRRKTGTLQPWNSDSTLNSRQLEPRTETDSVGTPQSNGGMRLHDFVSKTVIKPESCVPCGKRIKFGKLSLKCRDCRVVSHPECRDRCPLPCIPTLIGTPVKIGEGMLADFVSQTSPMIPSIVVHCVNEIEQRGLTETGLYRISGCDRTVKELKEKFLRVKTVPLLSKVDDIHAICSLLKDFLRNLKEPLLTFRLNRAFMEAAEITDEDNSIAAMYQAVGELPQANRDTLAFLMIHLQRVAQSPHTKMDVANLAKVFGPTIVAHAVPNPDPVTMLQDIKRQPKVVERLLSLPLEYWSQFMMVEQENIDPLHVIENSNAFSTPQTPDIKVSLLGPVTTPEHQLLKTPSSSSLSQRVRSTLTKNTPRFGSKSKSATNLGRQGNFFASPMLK

[5] = Luminescence Cell-Based Dose Retest to Confirm Inhibitors of Cancer Stem Cells. [Related pubchem assays (depositor defined):AID2717, AID2721]; format: functional, Homo sapiens; details: Homo sapiens
[6] = molecular target: Cytochrome P450 3A4 (Homo sapiens, UniProt P08684);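 note: CYP3A4 tested as one member of a cytochrome P450 panel screen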
[7] = luciferase reporter signal suppression in cells – H4 neuroglioma cells, luminescence, dose response (AID 1990); format: functional, cell-based
[8] = Luminescence Cell-Based Dose Response HTS to Identify Inhibitors of 5'UTR Stem-Loop Driven Prion Protein mRNA Translation in H4 Neuroglioblastoma Cells. [Related pubchem assays: 1827 (Project Summary), 1813 (Primary HTS)]; format: functional
[9] = alpha-synuclein stem-loop luciferase translation blockers – H4 neuroglioma cells, luminescence, confirmation (AID 1988); format: functional, cell-based
[10] = molecular target: Paired box protein Pax-8 (Homo sapiens, UniProt Q06710); assay: PAX8 transcriptional activity inhibition in RMG-I – RMG-I cells, luciferase, cherry-pick, dose response (AID 687027); format: functional, cell-based;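 note: luciferase reporter driven by Pax8 target thyroperoxidase promoter measured by SteadyGlo luminescence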
Paired box protein Pax-8, sequence (Q06710 whole entry): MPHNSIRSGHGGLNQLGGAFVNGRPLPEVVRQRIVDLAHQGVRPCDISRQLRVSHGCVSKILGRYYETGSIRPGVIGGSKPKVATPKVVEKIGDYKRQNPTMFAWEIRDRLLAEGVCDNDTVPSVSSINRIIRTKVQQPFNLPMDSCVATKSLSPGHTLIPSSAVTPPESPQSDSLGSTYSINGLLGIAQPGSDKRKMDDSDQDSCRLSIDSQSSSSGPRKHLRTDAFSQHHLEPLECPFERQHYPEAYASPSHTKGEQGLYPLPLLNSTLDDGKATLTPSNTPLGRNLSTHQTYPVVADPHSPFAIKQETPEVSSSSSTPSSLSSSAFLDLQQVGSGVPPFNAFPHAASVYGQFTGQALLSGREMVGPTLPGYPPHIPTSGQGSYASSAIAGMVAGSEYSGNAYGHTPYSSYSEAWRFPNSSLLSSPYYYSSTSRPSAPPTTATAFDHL

Cytochrome P450 3A4, sequence (P08684 whole entry): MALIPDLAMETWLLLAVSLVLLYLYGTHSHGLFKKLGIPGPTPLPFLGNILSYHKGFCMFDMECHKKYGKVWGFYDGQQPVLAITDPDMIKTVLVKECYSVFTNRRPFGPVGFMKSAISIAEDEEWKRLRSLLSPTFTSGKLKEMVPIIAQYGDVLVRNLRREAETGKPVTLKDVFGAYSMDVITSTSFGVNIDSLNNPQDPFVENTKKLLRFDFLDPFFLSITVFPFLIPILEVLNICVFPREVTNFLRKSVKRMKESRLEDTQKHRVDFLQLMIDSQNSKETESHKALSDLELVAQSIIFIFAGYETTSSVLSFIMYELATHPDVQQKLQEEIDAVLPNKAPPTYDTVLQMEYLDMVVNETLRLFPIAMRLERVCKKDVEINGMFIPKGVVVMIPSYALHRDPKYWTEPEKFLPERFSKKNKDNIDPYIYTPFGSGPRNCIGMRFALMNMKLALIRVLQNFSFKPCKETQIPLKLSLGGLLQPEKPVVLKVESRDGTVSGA
Cytochrome P450 2C19, sequence (P33261 whole entry): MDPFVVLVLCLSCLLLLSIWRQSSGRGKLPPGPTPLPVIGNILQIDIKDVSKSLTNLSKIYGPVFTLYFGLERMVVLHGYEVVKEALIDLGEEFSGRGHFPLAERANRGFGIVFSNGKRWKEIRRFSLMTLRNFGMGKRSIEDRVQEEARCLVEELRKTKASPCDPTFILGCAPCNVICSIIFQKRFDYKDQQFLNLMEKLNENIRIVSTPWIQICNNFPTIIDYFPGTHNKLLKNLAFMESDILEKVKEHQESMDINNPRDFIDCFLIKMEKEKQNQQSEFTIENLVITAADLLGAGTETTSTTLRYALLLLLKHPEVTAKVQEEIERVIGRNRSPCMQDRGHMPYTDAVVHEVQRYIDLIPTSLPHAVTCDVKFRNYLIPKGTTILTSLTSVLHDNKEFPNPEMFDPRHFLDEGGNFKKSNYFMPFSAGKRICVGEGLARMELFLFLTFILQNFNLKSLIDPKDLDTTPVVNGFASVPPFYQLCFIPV

C=C1SC(Nc2c(C)cccc2C)=NC12CCCCC2
EC50 [1]: 0.795 µM (active) | EC50 [2]: 4.83 µM (active)

CCc1c(C)c(C#N)c2nc3ccccc3n2c1N1CCN(c2cc(C)ccn2)CC1
AC50 [3]: 10 µM (inconclusive)

COc1cccc(CN2CCCC(CNC(=O)c3ccc(F)cc3)C2)c1OC (stereo not drawn)
EC50 [1]: 0.704 µM (active) | EC50 [2]: > 60 µM (inconclusive)

COc1ccc(CN2CCN(Cc3ccccc3F)CC2)cc1OC
IC50 [4]: 85.5 µM (active)

COc1ccc(OC)c(C(c2nnnn2C(C)(C)C)N2CCc3ccccc3C2)c1 (stereo not drawn)
EC50 [1]: 2.77 µM (active) | EC50 [2]: 5.8 µM (active)

O=c1c2c3c(sc2nc(NCCO)n1Cc1ccco1)CCCCC3
AC50 [5]: 1.8 µM (active)

CO/C(O)=C1/C(C)=Nc2ncnn2C1c1cccnc1 (stereo not drawn)
AC50 [6]: 39.8 µM (inconclusive)

CCOc1ccccc1-c1nc(-c2ccc(NC(=O)Cc3ccccc3OC)cc2)no1
EC50 [1]: 1.21 µM (active) | EC50 [2]: 10.2 µM (active)

O=C(CSc1[nH]cnc2ncnc1-2)Nc1nnc(SCc2ccc(Cl)c(Cl)c2)s1
AC50 [5]: 7.23 µM (active)

Cc1cc2c(c(=O)n1C1CC1)C(c1cccc(Cl)c1)C(C#N)=C(N)O2 (stereo not drawn)
EC50 [7]: > 120 µM (not active) | EC50 [8]: > 120 µM (not active) | EC50 [9]: > 120 µM (not active)

Cc1cc(C)cc(NC(=O)CSc2nc3c(oc4ccccc43)c(=O)n2-c2ccccc2)c1
EC50 [1]: 1.26 µM (active) | EC50 [2]: > 60 µM (inconclusive)

COCC(=O)N1CCC[C@@]2(CCN(C(=O)Nc3cccc(F)c3)C2)C1
AC50 [6]: 25.1 µM (inconclusive)

COc1ccc(OC(=O)COc2cccc(C)c2)cc1
IC50 [4]: 52.9 µM (active)

COc1ccc(-n2nc(C(=O)NCC(=O)N3CCN(Cc4ccc5c(c4)OCO5)CC3)c3ccccc3c2=O)cc1OC
EC50 [7]: 21.3 µM (active) | EC50 [8]: > 120 µM (not active) | EC50 [9]: > 120 µM (not active)

COc1ccc(C(=O)C[n+]2nc(CNc3ccc(Br)cc3)n3c2CCCCC3)cc1
EC50 [1]: 0.898 µM (active) | EC50 [2]: > 60 µM (not active)

O=C(NC1CCCCC1)Oc1cc2oc(=O)sc2cc1Br
EC50 [7]: > 120 µM (not active) | EC50 [8]: > 120 µM (not active) | EC50 [9]: > 120 µM (not active)

CCOc1ccc(N(C)Cc2cc(=O)oc3ccc(OC)cc23)cc1
EC50 [1]: 0.798 µM (active) | EC50 [2]: > 60 µM (not active)

Cc1ccc(NC(=O)CN2CCC(NC(=O)Cc3ccccc3)CC2)cc1C
AC50 [6]: 14.1 µM (inconclusive)

CCCc1cc2c(n1Cc1ccc(C)cc1)C(C)C1CN(C(=O)c3ccccc3)C(C)(C(=O)OC)C21 (stereo not drawn)
AC50 [3]: 25.1 µM (inconclusive)

CC(C)(CN1CCN(Cc2ccccc2)CC1)NS(=O)(=O)c1ccccc1
AC50 [5]: 12.7 µM (active)

CSc1nc2c(c(C(F)(F)F)n1)CC(C)CC2 (stereo not drawn)
AC50 [3]: 39.8 µM (inconclusive)

Cc1ccc(Cl)cc1NC(=S)N/N=C/c1cccc2ccccc12
EC50 [1]: 2.97 µM (active) | EC50 [2]: 0.425 µM (active) | AC50 [5]: 0.167 µM (active)

O=C(c1ccc(F)cc1)N1C[C@@H]2N[C@H](C1)[C@@H]2c1ccc(-c2ccc(F)cc2)cc1
AC50 [10]: 18.3 µM (active)

CN([C@@H](Cc1ccc(OS(=O)(=O)c2cccc3cnccc23)cc1)C(=O)N1CCN(c2ccccc2)CC1)S(=O)(=O)c1cccc2cnccc12
EC50 [1]: 0.4 µM (active) | EC50 [2]: 11.2 µM (active)

Cc1ccc(S(=O)(=O)c2c(N)n(/N=C/c3ccco3)c3nc4ccccc4nc23)cc1
EC50 [1]: 1.8 µM (active) | EC50 [2]: > 60 µM (not active)

CC(=O)c1c(/N=C/N(C)C)nc(C)nc1-c1ccccc1
AC50 [3]: 25.1 µM (inconclusive)

COc1cc(/C=N/N2CCN(c3ccccc3OC)CC2)ccc1O
IC50 [4]: 36.7 µM (active)

CCOC(=O)C1=C(c2ccccc2)NC(SCC(=O)Nc2ccc(C)cc2)=C(C#N)C1c1ccco1 (stereo not drawn)
EC50 [1]: 2.91 µM (active) | EC50 [2]: > 60 µM (not active)

Cn1cnc2c(NCc3ccccc3)nc(NCCO)nc21 [OLOMOUCINE]
AC50 [6]: 15.8 µM (inconclusive)

CCCC(C(=O)OCCN(CC)CC)(c1ccccc1)c1ccccc1 [PROADIFEN]
AC50 [3]: 7.94 µM (inconclusive) and 3.98 µM (inconclusive)

Reference: ChEMBL document CHEMBL1201862, “PubChem BioAssay data set” (2004)
